Publication PMC11620503 (Antimicrobial Agents and Chemotherapy, 2024)
In brackets after ≈: the same amount, converted by molar mass. Like-named read-outs stand apart in the source and are kept apart here.

What was measured:
[1] = tested on: A. baumannii CDC-83 (NDM-1, OXA-23, 69); assay: MIC, broth microdilution; format: cell-based, Acinetobacter baumannii; settings: agent alone
[2] = tested on: 12 Gram-positive strains (including methicillin-sensitive staphylococci and streptococci); assay: Intrinsic antibacterial activity, MIC; format: cell-based; settings: KSP-1007 alone
[3] = Free concentration of KSP-1007 at the dose effective in the infection models; format: in vivo, mouse; settings: 30 mg/kg of KSP-1007; data not shown
[4] = tested on: Clostridioides difficile ATCC 700057; assay: MIC, agar dilution, reference strains of anaerobic bacteria; format: cell-based; settings: ATCC700057
[5] = tested on: Clostridioides difficile ATCC BAA-1870; assay: as above; format: cell-based; settings: ATCCBAA1870
[6] = tested on: Peptostreptococcus anaerobius ATCC 27337; assay: as above; format: cell-based; settings: ATCC27337
[7] = tested on: Peptoniphilus asaccharolyticus ATCC 14963; assay: as above; format: cell-based; settings: ATCC14963
Olsenella uli KUB3012 = assay: as above; format: cell-based
[8] = tested on: Bulleidia extructa KUB3013; assay: as above; format: cell-based
Atopobium rimae KUB3014 = assay: as above; format: cell-based; settings: Lancefieldella rimae
[9] = tested on: Propionibacterium acnes ATCC 11827; assay: as above; format: cell-based; settings: Cutibacterium acnes, ATCC11827
[10] = tested on: Actinomyces odontolyticus ATCC 17929; assay: as above; format: cell-based; settings: Schaalia odontolytica, ATCC17929
[11] = tested on: Bacteroides fragilis KUB2982; assay: as above; format: cell-based
[12] = tested on: Bacteroides thetaiotaomicron ATCC 29741; assay: as above; format: cell-based; settings: ATCC29741
[13] = tested on: Bacteroides ovatus KUB3009; assay: as above; format: cell-based
[14] = tested on: Prevotella intermedia KUB2991; assay: as above; format: cell-based
[15] = tested on: Prevotella melaninogenica KUB3005; assay: as above; format: cell-based
[16] = tested on: Prevotella buccae KUB2992; assay: as above; format: cell-based; settings: Segatella buccae
[17] = tested on: Fusobacterium varium ATCC 27725; assay: as above; format: cell-based; settings: ATCC27725
CTX-M-15 = CTX-M-15 (Escherichia coli, UniProt Q9EXV5); assay: Ki app determination (Waley's method)
CTX-M-27 = CTX-M-27 (Escherichia coli, UniProt Q840M4); assay: Ki app determination (Waley's method)
SHV-5 = SHV-5 (Klebsiella pneumoniae, UniProt P0A3M1); assay: Ki app determination (Waley's method)
SHV-12 = SHV-12 (Klebsiella pneumoniae, UniProt P0A3M1, L31Q); assay: Ki app determination (Waley's method)
KPC-2 = KPC-2 (Klebsiella pneumoniae, UniProt Q9F663); assay: Ki app determination (Waley's method)
KPC-38 = KPC-38 (Klebsiella pneumoniae, UniProt Q9F663); assay: Ki app determination (Waley's method); settings: read-out: Ki app, means from three independent studies
OXA-23 = OXA-23 (Acinetobacter baumannii, UniProt Q9L4P2); assay: Ki app determination (Waley's method)
IMP-1 = IMP-1 (Serratia marcescens, UniProt P52699); assay: Ki app determination (Waley's method)
NDM-1 = NDM-1 (Klebsiella pneumoniae, UniProt C7C422); assay: Ki app determination (Waley's method)
NDM-6 = NDM-6 (Klebsiella pneumoniae, UniProt C7C422, A233V); assay: Ki app determination (Waley's method)
NDM-7 = NDM-7 (Klebsiella pneumoniae, UniProt C7C422, D130N/M154L); assay: Ki app determination (Waley's method)
[18] = tested on: Klebsiella pneumoniae ATCC BAA-2344 (KPC-2); assay: MIC, broth microdilution; format: cell-based; settings: K. pneumoniae ATCC BAA-2344, agent alone
[19] = tested on: E. coli ATCC BAA-2469 (NDM-1); assay: MIC, broth microdilution; format: cell-based, Escherichia coli
[20] = tested on: Acinetobacter baumannii (46); assay: MIC, broth microdilution; format: cell-based
[21] = tested on: A. baumannii CDC-303 (OXA-23, 66); assay: Lethal mouse model of systemic infection; settings: Acinetobacter baumannii, in Mus musculus, sc, read-out: ED50 of MEM, extrapolated from the probit analysis
[22] = tested on: P. aeruginosa CDC-110 (VIM-2); assay: Lethal mouse model of systemic infection; settings: Pseudomonas aeruginosa, in Mus musculus, sc, read-out: ED50 of MEM (95% confidence intervals)
[23] = CLSI breakpoints, marked c: breakpoints for β-lactam alone

For CC(C)(O/N=C(\C(=O)N[C@@H]1C(=O)N2C(C(=O)[O-])=C(C[N+]3(CCNC(=O)c4ccc(O)c(O)c4Cl)CCCC3)CS[C@H]12)c1csc(N)n1)C(=O)O [FDC, cefiderocol], the MIC [1] was 16 µg/mL (≈ 21.3 µM).

For N[C@@H](C(=O)N1CC(Oc2ccc3c(c2C(=O)O)OB(O)CC3)C1)c1c[nH]cn1 [KSP-1007, 7-({1-[(2R)-2-amino-2-(1H-imidazol-4-yl)acetyl]azetidin-3-yl}oxy)-2-hydroxy-3,4-dihydro-2H-1,2-benzoxaborinine-8-carboxylic acid], the “MICs, range” value [2] was 0.25 to 8 µg/mL, the free concentration [3] was “exceeded 8 µg/mL” and the MIC [4] was over 256 µg/mL. The MIC [5] was over 256 µg/mL, the MIC [6] was over 256 µg/mL and the MIC [7] was 32 µg/mL (≈ 82.9 µM). It also gave an MIC (Olsenella uli KUB3012) of 64 µg/mL (≈ 166 µM), an MIC [8] of 32 µg/mL (≈ 82.9 µM) and an MIC (Atopobium rimae KUB3014) of 8 µg/mL (≈ 20.7 µM). The MIC [9] was 32 µg/mL (≈ 82.9 µM), the MIC [10] was 256 µg/mL (≈ 663 µM) and the MIC [11] was 16 µg/mL (≈ 41.4 µM). It also gave an MIC [12] of 64 µg/mL (≈ 166 µM), an MIC [13] of 128 µg/mL (≈ 331 µM) and an MIC [14] of 4 µg/mL (≈ 10.4 µM). The MIC [15] was 4 µg/mL (≈ 10.4 µM), the MIC [16] was 8 µg/mL (≈ 20.7 µM) and the MIC [17] was over 256 µg/mL. The Ki (CTX-M-15) was 0.0664 ± 0.015 nM, the Ki (CTX-M-27) was 0.159 ± 0.0228 nM and the Ki (SHV-5) was 127 ± 16 nM. The Ki (SHV-12) was 53.5 ± 12.2 nM, the Ki (KPC-2) was 1.46 ± 0.0574 nM and the Ki (KPC-38) was 0.836 ± 0.414 nM. The Ki (OXA-23) was 4.07 ± 0.237 nM, the Ki (IMP-1) was 512 ± 119 nM and the Ki (NDM-1) was 126 ± 58.1 nM. It also gave a Ki (NDM-6) of 1050 nM and a Ki (NDM-7) of 53 ± 30.2 nM.

C[C@@H](O)[C@H]1C(=O)N2C(C(=O)O)=C(S[C@@H]3CN[C@H](C(=O)N(C)C)C3)[C@H](C)[C@H]12 [MEM, meropenem] gave an MIC ([18]; Experiment 1) of 16 to 32 µg/mL, an MIC ([18]; Klebsiella pneumoniae, ATCCBAA2344, Experiment 2, read-out: MIC) of 16 to 32 µg/mL (≈ 41.7 to 83.4 µM) and an MIC ([19]; Escherichia coli, ATCCBAA2469, Experiment 1, agent alone, read-out: MIC) of 32 µg/mL (≈ 83.4 µM). The MIC ([19]; Experiment 2, agent alone) was 32 µg/mL (≈ 83.4 µM), the “CLSI MIC interpretation I (intermediate)” value [20, 23] was 0% and the “CLSI MIC interpretation R (resistant)” value [20, 23] was 100%. The “CLSI MIC interpretation S (susceptible)” value [20, 23] was 0%, the MIC50 ([20]; fixed concentration (μg/mL) in label) was 32 µg/mL (≈ 83.4 µM) and the ED50 [21] was 6550 mg/kg. The ED50 [22] was 218 mg/kg.
